The values that follow are results of earlier work, collected in PMC6155437 (Molecules : A Journal of Synthetic Chemistry and Natural …, 2017).

One series addresses T1, CYP2C9 (Homo sapiens, UniProt P11712).
T1 construct: tissue Corning Life Sciences; host or cells: pooled human liver microsomes (150 donors)
On the set-up: method as in PMID 22166891. Conditions: CYP2C9-catalyzed diclofenac hydroxylation in human liver microsomes; cited from earlier work. Background: Liver microsomes are a subcellular fraction often used to study metabolism.

The next series concerns the target T2, CYP2B6 (Homo sapiens, UniProt P20813).
T2 construct: pooled human liver microsomes (0.2 mg/mL); tissue Corning Life Sciences; host or cells: pooled human liver microsomes (150 donors)
T2 sequence (P20813 1-491): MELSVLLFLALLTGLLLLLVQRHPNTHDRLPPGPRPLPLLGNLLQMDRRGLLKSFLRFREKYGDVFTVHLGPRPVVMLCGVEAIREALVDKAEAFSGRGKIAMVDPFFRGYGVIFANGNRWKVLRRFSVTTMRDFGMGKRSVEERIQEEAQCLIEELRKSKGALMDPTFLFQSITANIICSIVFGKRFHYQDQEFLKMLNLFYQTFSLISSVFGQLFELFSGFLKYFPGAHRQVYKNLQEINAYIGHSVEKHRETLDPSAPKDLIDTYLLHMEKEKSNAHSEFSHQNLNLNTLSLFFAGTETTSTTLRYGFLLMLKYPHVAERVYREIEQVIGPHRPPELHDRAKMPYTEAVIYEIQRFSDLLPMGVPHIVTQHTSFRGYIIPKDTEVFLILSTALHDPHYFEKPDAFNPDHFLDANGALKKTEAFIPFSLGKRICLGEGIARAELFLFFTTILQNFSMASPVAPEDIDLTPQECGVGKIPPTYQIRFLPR
On the set-up: method as in doi:10.1007/s11419-011-0112-7. Conditions: CYP2B6 activity; cited from earlier work.

A further series concerns the target CYP3A4 (Homo sapiens, UniProt P08684). Conditions: CYP3A4 activity; cited from earlier work.

CYP3A4, sequence (P08684 whole entry): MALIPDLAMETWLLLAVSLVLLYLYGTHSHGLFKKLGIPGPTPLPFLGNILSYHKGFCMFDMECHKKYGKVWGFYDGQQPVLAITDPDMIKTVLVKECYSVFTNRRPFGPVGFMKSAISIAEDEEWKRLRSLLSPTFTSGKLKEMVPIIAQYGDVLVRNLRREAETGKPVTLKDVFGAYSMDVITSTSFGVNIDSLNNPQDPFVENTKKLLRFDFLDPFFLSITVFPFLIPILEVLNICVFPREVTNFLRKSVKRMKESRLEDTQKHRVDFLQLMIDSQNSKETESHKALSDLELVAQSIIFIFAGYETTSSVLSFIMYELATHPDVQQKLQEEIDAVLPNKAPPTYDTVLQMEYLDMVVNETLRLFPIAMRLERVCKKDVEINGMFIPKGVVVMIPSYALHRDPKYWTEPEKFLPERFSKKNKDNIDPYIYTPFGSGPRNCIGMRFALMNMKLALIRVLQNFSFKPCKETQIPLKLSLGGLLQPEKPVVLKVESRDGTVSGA
T1 sequence (P11712 whole entry): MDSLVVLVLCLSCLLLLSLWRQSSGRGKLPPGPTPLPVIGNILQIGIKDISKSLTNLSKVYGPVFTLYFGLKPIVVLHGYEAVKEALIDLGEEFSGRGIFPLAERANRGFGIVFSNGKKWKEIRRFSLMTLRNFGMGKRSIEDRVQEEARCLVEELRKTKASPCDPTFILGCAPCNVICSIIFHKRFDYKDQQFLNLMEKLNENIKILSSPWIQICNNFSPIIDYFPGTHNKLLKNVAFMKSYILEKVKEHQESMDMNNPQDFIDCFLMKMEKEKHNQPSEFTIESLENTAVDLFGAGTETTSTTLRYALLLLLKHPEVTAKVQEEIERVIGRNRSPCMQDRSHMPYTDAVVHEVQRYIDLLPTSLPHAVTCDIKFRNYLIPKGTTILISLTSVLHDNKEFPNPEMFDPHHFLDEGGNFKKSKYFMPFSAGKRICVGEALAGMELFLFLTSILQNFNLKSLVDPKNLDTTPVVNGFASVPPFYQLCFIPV

`CCCCCc1cc(O)c2c(c1)OC(C)(C)[C@@H]1CCC(C)=C[C@@H]21` [THC, Δ9-tetrahydrocannabinol]: the inhibition constant Ki at CYP2C9 is 1310 nM; at CYP2B6 it was 2810 nM. Moreover, the IC50 at CYP3A4 is > 50 µM.

`CCCCCc1cc(O)c2c(c1)OC(C)(C)c1ccc(C)cc1-2` [cannabinol]: the IC50 at CYP3A4 is > 50 µM.

For orientation: Ki means the dissociation constant of the complex between target and ligand, obtained from inhibition or displacement. By IC50 is commonly meant the concentration needed to halve the response being measured.
